Measured values as given in PubChem BioAssay AID743336 (Broad Institute, 2014).
Inconclusive results are not listed. Calls of active or inactive are those of the source.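 The calls were made as follows: active = fitted curve of rescue activity rises past 40% within the tested concentration range, in every replicate run; inconclusive = replicate runs disagree, some active and some not; inactive = all replicate runs inactive, including effects in the opposite direction.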

Experiment: suppressors of statin-induced myotube ATP loss, dose response, cell-based, differentiated C2C12, luminescence, dry powder (AID 743336)
Conditions: C2C12 myotubes + simvastatin, ATP luminescence, 48 h; at 18 µM (top of the series)

**Q.** With `C[C@H](CO)N1C[C@H](C)[C@H](CN(C)Cc2ccc3c(c2)OCO3)Oc2ccc(NC(=O)CCCCCC(=O)Nc3ccccc3N)cc2CC1=O` as the compound, how does the rescue activity read?
**A.** 27.2% (inactive)

Same assay, conditions: C2C12 myotubes + simvastatin, ATP luminescence, 48 h; at 19.5 µM (top of the series)

**Q.** With `C[C@@H]1CN([C@@H](C)CO)C(=O)c2cc(NC(=O)Cc3cn(C)c4ccccc34)ccc2O[C@H]1CN(C)Cc1ccc(C(=O)Nc2ccccc2N)cc1` as the compound, how does the rescue activity read?
**A.** 29.3% (inactive)

**Q.** With `N#C[C@@H]1[C@@H](c2ccc(C3=CCCCC3)cc2)[C@H](CO)N1C(=O)NC1CCCC1` as the compound, how does the rescue activity read?
**A.** 33.7% (inactive)

**Q.** For `C[C@@H]1CN([C@H](C)CO)C(=O)c2cccc(NC(=O)c3nc4ccccc4s3)c2O[C@@H]1CN(C)Cc1ccc(C(=O)Nc2ccccc2N)cc1`, which rescue activity is on record?
**A.** -3.35% (inactive)

**Q.** For `N#C[C@H]1[C@H](c2ccc(C#Cc3ccc(F)cc3)cc2)[C@H](CO)N1c1nc(-c2ccccc2)cs1`, which rescue activity is on record?
**A.** 38.1% (inactive)

**Q.** Which rescue activity does the source give for `N#C[C@H]1[C@H](c2ccc(-c3cccc(F)c3)cc2)[C@@H](CO)N1C(=O)NC1CCCC1` here?
**A.** 33.1% (inactive)

**Q.** For `C[C@@H]1CN([C@H](C)CO)C(=O)Cc2cc(NC(=O)CCCCCC(=O)Nc3ccccc3N)ccc2O[C@@H]1CN(C)Cc1ccc(Oc2ccccc2)cc1`, which rescue activity is on record?
**A.** -50.8% (inactive)

**Q.** For `N#C[C@H]1[C@H](c2ccc(-c3cccc(F)c3)cc2)[C@H](CO)N1C(=O)NC1CCCC1`, which rescue activity is on record?
**A.** 29.9% (inactive)

**Q.** For `C[C@@H]1CN([C@H](C)CO)C(=O)Cc2cc(NC(=O)CCCCCC(=O)Nc3ccccc3N)ccc2O[C@H]1CN(C)Cc1ccc(Oc2ccccc2)cc1`, which rescue activity is on record?
**A.** 30.8% (inactive)

**Q.** Which rescue activity does the source give for `C[C@H](CO)N1C[C@H](C)[C@@H](CN(C)Cc2ccc(Oc3ccccc3)cc2)Oc2c(NC(=O)Nc3cccc4ccccc34)cccc2C1=O` here?
**A.** 26.8% (inactive)

**Q.** For `N#C[C@@H]1[C@@H](c2ccc(-c3cccc(F)c3)cc2)[C@@H](CO)N1C(=O)NC1CCCC1`, which rescue activity is on record?
**A.** 9.41% (inactive)

**Q.** With `C[C@H](CO)N1C[C@H](C)[C@H](CN(C)Cc2ccc(C(=O)Nc3ccccc3N)cc2)Oc2ccc(N(C)C)cc2C1=O` as the compound, how does the rescue activity read?
**A.** 6.09% (inactive)

**Q.** With `C[C@@H]1CN([C@H](C)CO)C(=O)Cc2cc(NC(=O)C3CCCCC3)ccc2O[C@H]1CN(C)Cc1ccc(Cl)c(Cl)c1` as the compound, how does the rescue activity read?
**A.** 24.8% (inactive)

**Q.** For `N#C[C@@H]1[C@@H](c2ccc(C#Cc3cccnc3)cc2)[C@@H](CO)N1C(=O)C1CCCC1`, which rescue activity is on record?
**A.** -15.7% (inactive)

**Q.** For `N#C[C@@H]1[C@H](c2ccc(-c3cccc(F)c3)cc2)[C@H](CO)N1C(=O)NC1CCCC1`, which rescue activity is on record?
**A.** -9.1% (inactive)

**Q.** Which rescue activity does the source give for `N#C[C@H]1[C@H](c2ccc(C#CCC3CCCC3)cc2)[C@@H](CO)N1C(=O)CN1CCOCC1` here?
**A.** 28.6% (inactive)

**Q.** Which rescue activity does the source give for `CCCNC(=O)N1[C@H](C#N)[C@@H](c2ccc(C3=CCCCC3)cc2)[C@@H]1CO` here?
**A.** 37.4% (inactive)

**Q.** Which rescue activity does the source give for `C[C@H]1CN([C@@H](C)CO)S(=O)(=O)c2ccc(C#CC3CC3)cc2O[C@H]1CN(C)C(=O)Nc1cc(F)ccc1F` here?
**A.** 23.2% (inactive)

**Q.** With `C[C@H]1CN([C@@H](C)CO)C(=O)c2cc(N(C)C)ccc2O[C@@H]1CN(C)Cc1ccc(C(=O)Nc2ccccc2N)cc1` as the compound, how does the rescue activity read?
**A.** 28.1% (inactive)

**Q.** Which rescue activity does the source give for `CCCNC(=O)N1[C@H](CO)[C@H](c2ccccc2)[C@@H]1C#N` here?
**A.** -1.71% (inactive)

**Q.** For `N#C[C@@H]1[C@@H](c2ccc(-c3ccc(F)cc3)cc2)[C@H](CO)N1C(=O)Cc1ccccc1`, which rescue activity is on record?
**A.** 37.6% (inactive)

**Q.** Which rescue activity does the source give for `N#C[C@@H]1[C@@H](c2ccccc2-c2ccc(F)cc2)[C@H](CO)N1C(=O)NC1CCCC1` here?
**A.** 35.5% (inactive)

**Q.** With `CN1C(=O)c2cc(NC(=O)c3ccc(F)c(F)c3)ccc2OC[C@H]2O[C@@H](CC(=O)Nc3ccc4c(c3)COC4)CC[C@@H]21` as the compound, how does the rescue activity read?
**A.** 29.3% (inactive)

**Q.** For `N#C[C@@H]1[C@@H](c2ccc(-c3cccc(F)c3)cc2)[C@H](CO)N1C(=O)c1cccnc1`, which rescue activity is on record?
**A.** 7.76% (inactive)

**Q.** Which rescue activity does the source give for `O=C(C[C@H]1CC[C@@H]2[C@H](COC[C@H](O)CN2CCC(F)(F)F)O1)NCc1ccc(Oc2ccccc2)cc1` here?
**A.** 23.4% (inactive)

**Q.** With `COc1ccc(C#Cc2cnc3c(c2)C(=O)N([C@H](C)CO)C[C@H](C)[C@H](CN(C)Cc2ccccc2)O3)cc1OC` as the compound, how does the rescue activity read?
**A.** 32.2% (inactive)

**Q.** Which rescue activity does the source give for `N#C[C@@H]1[C@@H](c2ccccc2-c2cccc(F)c2)[C@H](CO)N1C(=O)NC1CCCC1` here?
**A.** 35.9% (inactive)

**Q.** For `CN(C)C(=O)c1cccc(-c2ccc([C@@H]3[C@@H](C#N)N(C(=O)C4CCCC4)[C@@H]3CO)cc2)c1`, which rescue activity is on record?
**A.** 11.9% (inactive)

**Q.** For `C[C@@H]1CN([C@H](C)CO)C(=O)Cc2cc(NS(=O)(=O)c3cn(C)cn3)ccc2O[C@@H]1CN(C)Cc1ccc(Cl)c(Cl)c1`, which rescue activity is on record?
**A.** 34.3% (inactive)

**Q.** For `O=C(C[C@H]1CC[C@@H]2[C@H](COC[C@@H](O)CN2Cc2ccc(Oc3ccccc3)cc2)O1)N1CCCCC1`, which rescue activity is on record?
**A.** 22.2% (inactive)

**Q.** For `C[C@H](CO)N1C[C@H](C)[C@H](CN(C)Cc2ccc(C(=O)Nc3ccccc3N)cc2)Oc2ccc(NC(=O)Nc3ccc(F)cc3)cc2CC1=O`, which rescue activity is on record?
**A.** -62.1% (inactive)

**Q.** With `C[C@H]1CN([C@@H](C)CO)C(=O)c2cc(C#Cc3ccncc3)cnc2O[C@@H]1CN(C)CC1CCCC1` as the compound, how does the rescue activity read?
**A.** 20.2% (inactive)

**Q.** For `COc1ccc(-c2ccc([C@@H]3[C@@H](C#N)N(C(=O)NC4CCCC4)[C@H]3CO)cc2)cc1`, which rescue activity is on record?
**A.** 12.8% (inactive)

**Q.** With `N#C[C@H]1[C@@H](c2ccc(-c3cccc(F)c3)cc2)[C@@H](CO)N1C(=O)NC1CCCC1` as the compound, how does the rescue activity read?
**A.** 5.12% (inactive)

**Q.** Which rescue activity does the source give for `Cc1ccc(S(=O)(=O)N(C)C[C@@H]2Oc3ccc(NS(=O)(=O)c4ccc(Cl)cc4)cc3C(=O)N([C@H](C)CO)C[C@@H]2C)cc1` here?
**A.** 27.2% (inactive)

**Q.** Which rescue activity does the source give for `C/C=C/c1ccc([C@H]2[C@@H](CO)N(C(=O)NC3CCCC3)[C@H]2C#N)cc1` here?
**A.** 5.47% (inactive)

**Q.** Which rescue activity does the source give for `CCCC#Cc1ccc([C@H]2[C@@H](C#N)N(S(=O)(=O)c3cccc(F)c3)[C@H]2CO)cc1` here?
**A.** 3.48% (inactive)

**Q.** With `N#C[C@@H]1[C@H](c2ccc(-c3cccc(F)c3)cc2)[C@@H](CO)N1C(=O)NC1CCCC1` as the compound, how does the rescue activity read?
**A.** -10.7% (inactive)

Same assay, conditions: C2C12 myotubes + simvastatin, ATP luminescence, 48 h; at 21 µM (top of the series)

**Q.** Which rescue activity does the source give for `C[C@H]1CN([C@@H](C)CO)C(=O)Cc2cc(NC(=O)CCCCCC(=O)Nc3ccccc3N)ccc2O[C@H]1CN(C)Cc1ccc(C(F)(F)F)cc1` here?
**A.** 44.5% (inactive)

**Q.** Which rescue activity does the source give for `C[C@H]1CN([C@@H](C)CO)C(=O)Cc2cc(NC(=O)CCCCCC(=O)Nc3ccccc3N)ccc2O[C@@H]1CN(C)Cc1ccc(Oc2ccccc2)cc1` here?
**A.** 20% (inactive)

**Q.** Which rescue activity does the source give for `CC(C)CC#Cc1cnc2c(c1)C(=O)N([C@H](C)CO)C[C@H](C)[C@@H](CN(C)C(=O)Cc1ccccc1)O2` here?
**A.** -0.381% (inactive)

**Q.** For `N#C[C@H]1N[C@@H](CO)[C@@H]1c1ccc(-c2cccc(F)c2)cc1`, which rescue activity is on record?
**A.** 0.836% (inactive)

**Q.** Which rescue activity does the source give for `COCC(=O)N1[C@H](C#N)[C@@H](c2ccc(-c3cccc(F)c3)cc2)[C@@H]1CO` here?
**A.** 7.78% (inactive)

**Q.** With `C[C@@H]1CN([C@@H](C)CO)C(=O)Cc2cc(NC(=O)CCCCCC(=O)Nc3ccccc3N)ccc2O[C@@H]1CN(C)Cc1ccc(Oc2ccccc2)cc1` as the compound, how does the rescue activity read?
**A.** -22.1% (inactive)

**Q.** With `C[C@H]1CN([C@@H](C)CO)C(=O)Cc2cc(NS(=O)(=O)c3ccc(Cl)cc3)ccc2O[C@@H]1CN(C)CC1CCCCC1` as the compound, how does the rescue activity read?
**A.** 3.09% (inactive)

**Q.** For `CCS(=O)(=O)N1[C@H](C#N)[C@@H](c2ccc(-c3cccc(F)c3)cc2)[C@@H]1CO`, which rescue activity is on record?
**A.** 10.1% (inactive)

**Q.** Which rescue activity does the source give for `C[C@H](CO)N1C[C@H](C)[C@H](CN(C)Cc2ccc(Oc3ccccc3)cc2)Oc2ccc(NC(=O)CCCCCC(=O)Nc3ccccc3N)cc2CC1=O` here?
**A.** -22.7% (inactive)

**Q.** For `CCCNC(=O)N1[C@@H](C#N)[C@@H](c2ccc(-c3ccccc3F)cc2)[C@@H]1CO`, which rescue activity is on record?
**A.** -7.41% (inactive)
